Measured values reported in ChEMBL document CHEMBL1201862, “PubChem BioAssay data set” (2004).
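Following 48 hours of exposure in 96-well plates, responses at five concentrations were used to interpolate endpoints linearly. GI50 is the concentration that inhibits growth by half.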 The source made the active and inactive calls. No stated cut-off is given here; in the data, active = GI50 up to about 1.1 µM and inactive = higher.

Legend:
Assay in all cases: NCI tumour cell line growth inhibition, 48 h
HL-60 = test system: HL-60
OVCAR-4 = test system: OVCAR-4
SF-539 = test system: SF-539
U-251 = test system: U-251
BT-549 = test system: BT-549
SF-268 = test system: SF-268
EKVX = test system: EKVX
NCI/ADR-RES = test system: NCI/ADR-RES
SF-295 = test system: SF-295
HCT-116 = test system: HCT-116
MDA-MB-231 = test system: MDA-MB-231
SN12C = test system: SN12C
SNB-19 = test system: SNB-19
CCRF-CEM = test system: CCRF-CEM
HOP-62 = test system: HOP-62
OVCAR-3 = test system: OVCAR-3
ACHN = test system: ACHN
COLO 205 = test system: COLO 205
Malme-3M = test system: Malme-3M
RXF 393 = test system: RXF 393

Measured: GI50

CC(=O)OC1(C)C(=O)OC/C2=C/CN(C)CCC(OC(=O)C(O)(C(C)Cl)CC1C)C2=O.c1ccccc1 (centres undefined)
inactive: HL-60 > 100 µM | OVCAR-4 > 100 µM | SF-539 > 100 µM | U-251 > 100 µM | BT-549 > 100 µM | SF-268 > 100 µM | EKVX > 100 µM | NCI/ADR-RES > 100 µM | SF-295 > 100 µM | HCT-116 > 100 µM | MDA-MB-231 > 100 µM | SN12C > 100 µM | SNB-19 > 100 µM | CCRF-CEM > 100 µM | HOP-62 > 100 µM | OVCAR-3 > 100 µM | ACHN > 100 µM | COLO 205 > 100 µM

Nc1cc(N2CCCC2)nc(=O)n1-c1ccccc1
inactive: HL-60 > 100 µM | Malme-3M > 100 µM | OVCAR-4 > 100 µM | SF-539 > 100 µM | U-251 > 100 µM | BT-549 > 100 µM | EKVX > 100 µM | NCI/ADR-RES > 100 µM | SF-295 > 100 µM | HCT-116 > 100 µM | MDA-MB-231 > 100 µM | SN12C > 100 µM | SNB-19 > 100 µM | CCRF-CEM > 100 µM | HOP-62 > 100 µM | ACHN > 100 µM | COLO 205 > 100 µM

COc1ccc(C2OCCN2C)cc1 (centres undefined)
inactive: Malme-3M > 100 µM | OVCAR-4 > 100 µM | SF-539 > 100 µM | U-251 > 100 µM | BT-549 > 100 µM | SF-268 > 100 µM | EKVX > 100 µM | NCI/ADR-RES > 100 µM | SF-295 > 100 µM | HCT-116 > 100 µM | MDA-MB-231 > 100 µM | SNB-19 > 100 µM | CCRF-CEM > 100 µM | HOP-62 > 100 µM | OVCAR-3 > 100 µM | RXF 393 > 100 µM | ACHN > 100 µM | COLO 205 > 100 µM

COc1ccc(NC(S)=Nc2cccc(C)n2)cc1
inactive: HL-60 > 100 µM | OVCAR-4 > 100 µM | SF-539 74.6 µM | U-251 33.5 µM | BT-549 > 100 µM | SF-268 55.1 µM | EKVX > 100 µM | NCI/ADR-RES > 100 µM | SF-295 33.3 µM | HCT-116 > 100 µM | MDA-MB-231 > 100 µM | SNB-19 > 100 µM | CCRF-CEM > 100 µM | HOP-62 25.6 µM | RXF 393 28.4 µM | ACHN > 100 µM | COLO 205 > 100 µM

O=C(O)C12C3C4(C(=O)O)C1C1(C(=O)O)C2C3(C(=O)O)C41 (centres undefined)
inactive: HL-60 > 100 µM | Malme-3M > 100 µM | OVCAR-4 > 100 µM | SF-539 > 100 µM | U-251 > 100 µM | BT-549 > 100 µM | SF-268 > 100 µM | EKVX > 100 µM | NCI/ADR-RES > 100 µM | SF-295 4.4 µM | HCT-116 > 100 µM | MDA-MB-231 > 100 µM | SN12C > 100 µM | SNB-19 > 100 µM | CCRF-CEM > 100 µM | HOP-62 > 100 µM | OVCAR-3 > 100 µM | ACHN > 100 µM | COLO 205 > 100 µM

COc1cc([C@@H]2c3cc4c(cc3[C@@H](c3c(O)cc(O)c5c3O[C@H](c3ccc(O)c(O)c3)[C@H](OC(=O)c3cc(O)c(O)c(O)c3)C5)[C@H]3COC(=O)[C@H]23)OCO4)cc(OC)c1OC
inactive: OVCAR-4 16.6 µM | SF-539 4.22 µM | U-251 6.12 µM | BT-549 > 34.4 µM | SF-268 5.79 µM | EKVX 45.5 µM | NCI/ADR-RES 33 µM | SF-295 3.91 µM | HCT-116 5 µM | MDA-MB-231 4.52 µM | SN12C 12.9 µM | SNB-19 52.7 µM | CCRF-CEM 2.44 µM | HOP-62 11.9 µM | OVCAR-3 4.01 µM | RXF 393 4.67 µM | ACHN 1.33 µM | COLO 205 25.9 µM

CN(C)CCNc1ccc(NCCN(C)C)c2c1C(=O)c1ncsc1C2=O
inactive: OVCAR-4 10.2 µM | SF-539 12.9 µM | U-251 14 µM | BT-549 18.1 µM | SF-268 15.4 µM | EKVX 12.3 µM | NCI/ADR-RES 35.7 µM | SF-295 12.8 µM | HCT-116 8.18 µM | MDA-MB-231 15.9 µM | SN12C 10.9 µM | SNB-19 18.6 µM | CCRF-CEM 3.08 µM | HOP-62 13.2 µM | OVCAR-3 4.65 µM | RXF 393 18.6 µM | ACHN 8.2 µM | COLO 205 12.4 µM

CCN(CC)CCC(=O)Nc1ccc2sc3ccccc3c(=O)c2n1
inactive: HL-60 7.98 µM | Malme-3M 23.4 µM | OVCAR-4 22.9 µM | SF-539 18 µM | U-251 14.9 µM | BT-549 15.6 µM | SF-268 17.1 µM | EKVX 25.9 µM | NCI/ADR-RES 19.8 µM | SF-295 21.2 µM | HCT-116 12.5 µM | MDA-MB-231 > 10 µM | SN12C 23 µM | SNB-19 16.7 µM | CCRF-CEM 14.5 µM | HOP-62 16 µM | OVCAR-3 19.2 µM | ACHN 16.3 µM | COLO 205 12.9 µM

CN(C)Cc1cc(C(C)(C)C)cc(CNC2CCCCC2)c1O
inactive: Malme-3M 25.6 µM | OVCAR-4 35.6 µM | SF-539 17.7 µM | U-251 45 µM | BT-549 76.7 µM | SF-268 18.7 µM | EKVX 15.8 µM | NCI/ADR-RES 25.2 µM | SF-295 23 µM | HCT-116 25.4 µM | MDA-MB-231 42.3 µM | SN12C 35.6 µM | SNB-19 > 100 µM | CCRF-CEM 12.9 µM | HOP-62 41.2 µM | OVCAR-3 29.9 µM | RXF 393 29.2 µM | ACHN 42.9 µM | COLO 205 15.9 µM

CC1=C/C(=N\O)C(C(O)(C(F)(F)F)C(F)(F)F)C(C)(C)C1 (centres undefined)
inactive: Malme-3M > 10 µM | OVCAR-4 > 10 µM | SF-539 > 10 µM | U-251 > 10 µM | BT-549 > 10 µM | SF-268 > 10 µM | EKVX > 10 µM | NCI/ADR-RES > 10 µM | SF-295 > 10 µM | HCT-116 > 10 µM | MDA-MB-231 > 10 µM | SN12C > 10 µM | SNB-19 > 10 µM | CCRF-CEM > 10 µM | HOP-62 > 10 µM | OVCAR-3 > 10 µM | ACHN > 10 µM | COLO 205 > 10 µM

CN1C(=O)C(=Cc2ccc(Br)cc2)C(=O)N(C)C1=O
inactive: OVCAR-4 > 100 µM | U-251 > 100 µM | BT-549 > 100 µM | SF-268 > 100 µM | EKVX > 100 µM | NCI/ADR-RES > 100 µM | SF-295 > 100 µM | HCT-116 > 100 µM | MDA-MB-231 > 100 µM | SNB-19 > 100 µM | CCRF-CEM > 100 µM | HOP-62 > 100 µM | OVCAR-3 > 100 µM | RXF 393 40.8 µM | ACHN > 100 µM | COLO 205 > 100 µM

COc1cc2c(cc1OCCCCN1C(=O)c3cccc4cccc(c34)C1=O)N=C[C@@H]1CCCN1C2=O
inactive: Malme-3M 3.72 µM | OVCAR-4 3.27 µM | SF-539 2.55 µM | U-251 3.24 µM | BT-549 3.52 µM | SF-268 4.92 µM | EKVX 17.1 µM | NCI/ADR-RES 6.52 µM | SF-295 6.04 µM | HCT-116 3.59 µM | MDA-MB-231 3.53 µM | SN12C 3.53 µM | SNB-19 6.17 µM | CCRF-CEM 1.64 µM | HOP-62 7.73 µM | OVCAR-3 3.4 µM | RXF 393 2.09 µM | ACHN 2.22 µM | COLO 205 2.72 µM

CC1(C)[N+]([O-])=[N+]([O-])C1(C)Br (centres undefined)
inactive: OVCAR-4 > 100 µM | SF-539 > 100 µM | U-251 > 100 µM | BT-549 > 100 µM | SF-268 > 100 µM | EKVX > 100 µM | NCI/ADR-RES 65.8 µM | SF-295 82.4 µM | HCT-116 > 100 µM | MDA-MB-231 > 100 µM | SN12C > 100 µM | SNB-19 > 100 µM | CCRF-CEM > 100 µM | HOP-62 > 100 µM | OVCAR-3 > 100 µM | RXF 393 43.8 µM | ACHN > 100 µM | COLO 205 > 100 µM

O=c1c2cc(Cl)cc(Cl)c2oc2nc3n(c(=O)c12)CCCS3
inactive: Malme-3M > 100 µM | OVCAR-4 > 100 µM | SF-539 > 100 µM | U-251 > 100 µM | BT-549 47.6 µM | SF-268 > 100 µM | EKVX > 100 µM | NCI/ADR-RES > 100 µM | SF-295 > 100 µM | HCT-116 > 100 µM | MDA-MB-231 > 100 µM | SN12C > 100 µM | SNB-19 > 100 µM | CCRF-CEM 92.5 µM | HOP-62 > 100 µM | OVCAR-3 95.9 µM | RXF 393 > 100 µM | ACHN > 100 µM | COLO 205 > 100 µM

N=C(CC/C(N)=N/O)NO
inactive: Malme-3M > 100 µM | OVCAR-4 > 100 µM | U-251 > 100 µM | BT-549 > 100 µM | SF-268 > 100 µM | EKVX > 100 µM | NCI/ADR-RES > 100 µM | SF-295 > 100 µM | HCT-116 > 100 µM | MDA-MB-231 > 100 µM | SN12C > 100 µM | SNB-19 > 100 µM | HOP-62 > 100 µM | OVCAR-3 > 100 µM | RXF 393 > 100 µM | ACHN > 100 µM
